Data as given in patent US8673906B2, “Chromenone derivatives” (AstraZeneca AB, priority 2010, dated 2014).

The molecules below were run against PI3Kβ (Homo sapiens (Human), UniProt P42338) (assay: In vitro enzyme inhibition assay (Kinase Glo based enzyme activity assay)). Details: Test (a), human recombinant enzyme; read-out: PI3Kβ inhibition, IC50.
PI3Kβ, sequence (P42338 whole entry): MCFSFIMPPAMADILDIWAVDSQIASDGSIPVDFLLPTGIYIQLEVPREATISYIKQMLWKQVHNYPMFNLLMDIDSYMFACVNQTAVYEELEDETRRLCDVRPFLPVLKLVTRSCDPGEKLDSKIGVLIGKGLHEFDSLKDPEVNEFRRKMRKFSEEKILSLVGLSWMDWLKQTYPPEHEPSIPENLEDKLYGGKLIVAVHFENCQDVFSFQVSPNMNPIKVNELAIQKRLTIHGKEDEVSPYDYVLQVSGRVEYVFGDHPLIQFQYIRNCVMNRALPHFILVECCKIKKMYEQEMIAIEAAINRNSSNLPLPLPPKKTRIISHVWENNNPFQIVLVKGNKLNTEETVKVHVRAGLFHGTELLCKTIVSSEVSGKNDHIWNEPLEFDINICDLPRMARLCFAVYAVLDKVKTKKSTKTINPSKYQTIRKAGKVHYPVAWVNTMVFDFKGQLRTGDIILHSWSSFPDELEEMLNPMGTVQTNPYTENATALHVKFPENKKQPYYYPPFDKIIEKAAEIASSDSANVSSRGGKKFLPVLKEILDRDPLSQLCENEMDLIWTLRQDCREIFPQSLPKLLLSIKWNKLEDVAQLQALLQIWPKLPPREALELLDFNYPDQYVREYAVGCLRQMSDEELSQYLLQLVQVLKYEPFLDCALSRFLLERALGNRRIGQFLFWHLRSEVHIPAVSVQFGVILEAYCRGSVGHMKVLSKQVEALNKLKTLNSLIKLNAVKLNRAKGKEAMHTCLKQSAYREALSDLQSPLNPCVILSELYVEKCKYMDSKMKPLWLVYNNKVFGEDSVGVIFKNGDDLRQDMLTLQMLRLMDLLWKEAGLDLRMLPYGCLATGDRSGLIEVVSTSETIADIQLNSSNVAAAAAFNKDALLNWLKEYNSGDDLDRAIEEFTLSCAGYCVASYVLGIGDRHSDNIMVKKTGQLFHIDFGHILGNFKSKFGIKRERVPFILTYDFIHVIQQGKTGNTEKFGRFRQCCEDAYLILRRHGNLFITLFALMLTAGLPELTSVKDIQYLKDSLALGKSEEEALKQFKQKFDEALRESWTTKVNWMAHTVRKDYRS
PI3Kβ, sequence (P27986 whole entry partner): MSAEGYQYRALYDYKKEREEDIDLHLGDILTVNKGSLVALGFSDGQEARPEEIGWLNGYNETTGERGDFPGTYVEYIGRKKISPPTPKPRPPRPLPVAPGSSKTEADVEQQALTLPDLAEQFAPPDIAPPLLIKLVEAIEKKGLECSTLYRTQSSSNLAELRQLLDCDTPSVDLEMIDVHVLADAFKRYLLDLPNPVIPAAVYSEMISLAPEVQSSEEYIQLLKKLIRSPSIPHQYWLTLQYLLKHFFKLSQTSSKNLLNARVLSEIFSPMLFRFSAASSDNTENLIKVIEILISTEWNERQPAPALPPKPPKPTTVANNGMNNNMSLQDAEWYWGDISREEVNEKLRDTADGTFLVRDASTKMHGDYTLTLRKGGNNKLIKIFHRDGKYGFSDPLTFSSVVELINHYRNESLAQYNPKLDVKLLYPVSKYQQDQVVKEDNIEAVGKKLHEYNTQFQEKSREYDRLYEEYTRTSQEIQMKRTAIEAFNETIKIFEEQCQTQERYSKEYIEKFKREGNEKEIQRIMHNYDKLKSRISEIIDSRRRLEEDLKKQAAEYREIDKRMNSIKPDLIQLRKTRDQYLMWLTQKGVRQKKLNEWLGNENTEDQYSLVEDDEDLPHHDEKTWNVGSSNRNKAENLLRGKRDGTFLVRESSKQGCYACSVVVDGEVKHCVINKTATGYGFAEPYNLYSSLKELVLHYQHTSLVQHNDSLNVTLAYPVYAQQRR
Assay type: biochemical
Protocol: (a) In Vitro Enzyme Inhibition Assay
The inhibition of PI3Kβ, PI3Kα, PI3Kγ and PI3Kδ was evaluated in a Kinase Glo based enzyme activity assay using human recombinant enzymes. The assay measures depletion of ATP after incubation with enzyme, PIP2 and ATP plus compound. ATP at the end of the reaction is detected by addition of Kinase Glo reagent, in this the Ultra Glo™ luciferase (Promega) uses the ATP as a substrate to catalyze the mono-oxygenation of luciferin and the generation of light. A direct relationship exists between the luminescence measured with the Kinase-Glo Plus Reagent and the amount of ATP remaining in a completed kinase reaction and luminescence is inversely related to kinase activity. Twelve different compound concentrations were tested and raw data from the inhibition of PI3 Kb, PI3Kα, PI3Kγ and PI3Kδ was plotted versus inhibitor concentration.
Compounds in 100% DMSO were added to assay plates by acoustic dispensing. PI3Kβ was added in a Tris buffer (50 mM Tris pH7.4, 0.05% CHAPS, 2.1 mM DTT, and 10 mM MgCl2) and allowed to preincubate with compound for 20 minutes prior to addition of substrate solution containing PIP2 and ATP. The enzyme reaction was stopped after 80 minutes by the addition of Kinase Glo detection solution. Plates were left for 30 minutes at room temperature then read on a Pherastar Instrument (Luminescence ATP 384 program) setting gain on max well. The final concentration of DMSO, ATP and PIP2 in the assay were, 1%, 80 μM, and 80 μM respectively.
IC50 values were calculated using a log curve fitting to a non-linear regression package, fitting raw data to inhibitor concentration.
An IC50 of 10 nM was found for `CC(Nc1cccc(C#N)c1)c1cc(C(=O)N(C)C)cc2c(=O)cc(N3CCOCC3)oc12` (stereo not shown) [Example 3.18, 8-(1-(3-cyanophenylamino)ethyl)-N,N-dimethyl-2-morpholino-4-oxo-4H-chromene-6-carboxamide] in this work. An IC50 of 5 nM was found for `CC(Nc1cccc(Cl)c1Cl)c1cc(C(=O)N(C)C)cc2c(=O)cc(N3CCOCC3)oc12` (stereo not shown) [Example 3.19, 8-(1-(2,3-dichlorophenylamino)ethyl)-N,N-dimethyl-2-morpholino-4-oxo-4H-chromene-6-carboxamide] in this work. An IC50 of 5 nM was found for `C#Cc1cccc(NC(C)c2cc(C(=O)N(C)C)cc3c(=O)cc(N4CCOCC4)oc23)c1` (stereo not shown) [Example 3.20, 8-(1-(3-ethynylphenylamino)ethyl)-N,N-dimethyl-2-morpholino-4-oxo-4H-chromene-6-carboxamide] in this work. An IC50 of 114 nM was found for `Cc1ccc(C#N)cc1NC(C)c1cc(C(=O)N(C)C)cc2c(=O)cc(N3CCOCC3)oc12` (stereo not shown) [Example 3.21, 8-(1-(5-cyano-2-methylphenylamino)ethyl)-N,N-dimethyl-2-morpholino-4-oxo-4H-chromene-6-carboxamide] in this work. An IC50 of 4 nM was found for `Cc1ccc(F)cc1NC(C)c1cc(C(=O)N(C)C)cc2c(=O)cc(N3CCOCC3)oc12` (stereo not shown) [Example 3.22, 8-(1-(5-fluoro-2-methylphenylamino)ethyl)-N,N-dimethyl-2-morpholino-4-oxo-4H-chromene-6-carboxamide] in this work. An IC50 of 13 nM was found for `Cc1cc(C#N)cc(NC(C)c2cc(C(=O)N(C)C)cc3c(=O)cc(N4CCOCC4)oc23)c1` (stereo not shown) [Example 3.23, 8-(1-(3-cyano-5-methylphenylamino)ethyl)-N,N-dimethyl-2-morpholino-4-oxo-4H-chromene-6-carboxamide] in this work. An IC50 of 6 nM was found for `COc1ccc(F)cc1NC(C)c1cc(C(=O)N(C)C)cc2c(=O)cc(N3CCOCC3)oc12` (stereo not shown) [Example 3.24, 8-(1-(5-fluoro-2-methoxyphenylamino)ethyl)-N,N-dimethyl-2-morpholino-4-oxo-4H-chromene-6-carboxamide] in this work. An IC50 of 212 nM was found for `COc1ccc(C#N)cc1NC(C)c1cc(C(=O)N(C)C)cc2c(=O)cc(N3CCOCC3)oc12` (stereo not shown) [Example 3.25, 8-(1-(5-cyano-2-methoxyphenylamino)ethyl)-N,N-dimethyl-2-morpholino-4-oxo-4H-chromene-6-carboxamide] in this work. An IC50 of 4 nM was found for `CC(Nc1cc(F)ccc1Cl)c1cc(C(=O)N(C)C)cc2c(=O)cc(N3CCOCC3)oc12` (stereo not shown) [Example 3.26, 8-(1-(2-chloro-5-fluorophenylamino)ethyl)-N,N-dimethyl-2-morpholino-4-oxo-4H-chromene-6-carboxamide] in this work. An IC50 of 9 nM was found for `CC(Nc1c(F)ccc(F)c1F)c1cc(C(=O)N(C)C)cc2c(=O)cc(N3CCOCC3)oc12` (stereo not shown) [Example 3.27, N,N-dimethyl-2-morpholino-4-oxo-8-(1-(2,3,6-trifluorophenylamino)ethyl)-4H-chromene-6-carboxamide] in this work. An IC50 of 4 nM was found for `Cc1ccc(Cl)cc1NC(C)c1cc(C(=O)N(C)C)cc2c(=O)cc(N3CCOCC3)oc12` (stereo not shown) [Example 3.28, 8-(1-(5-chloro-2-methylphenylamino)ethyl)-N,N-dimethyl-2-morpholino-4-oxo-4H-chromene-6-carboxamide] in this work. An IC50 of 5 nM was found for `Cc1c(C#N)cccc1NC(C)c1cc(C(=O)N(C)C)cc2c(=O)cc(N3CCOCC3)oc12` (stereo not shown) [Example 3.29, 8-(1-(3-cyano-2-methylphenylamino)ethyl)-N,N-dimethyl-2-morpholino-4-oxo-4H-chromene-6-carboxamide] in this work. An IC50 of 4 nM was found for `COc1cc(F)cc(NC(C)c2cc(C(=O)N(C)C)cc3c(=O)cc(N4CCOCC4)oc23)c1` (stereo not shown) [Example 3.30, 8-(1-(3-fluoro-5-methoxyphenylamino)ethyl)-N,N-dimethyl-2-morpholino-4-oxo-4H-chromene-6-carboxamide] in this work. An IC50 of 6 nM was found for `COc1c(F)cccc1NC(C)c1cc(C(=O)N(C)C)cc2c(=O)cc(N3CCOCC3)oc12` (stereo not shown) [Example 3.31, 8-(1-(3-fluoro-2-methoxyphenylamino)ethyl)-N,N-dimethyl-2-morpholino-4-oxo-4H-chromene-6-carboxamide] in this work. An IC50 of 8 nM was found for `CC(Nc1c(F)ccc(Cl)c1F)c1cc(C(=O)N(C)C)cc2c(=O)cc(N3CCOCC3)oc12` (stereo not shown) [Example 3.32, 8-(1-(3-chloro-2,6-difluorophenylamino)ethyl)-N,N-dimethyl-2-morpholino-4-oxo-4H-chromene-6-carboxamide] in this work. An IC50 of 5 nM was found for `CC(Nc1cc(Cl)cc(Cl)c1)c1cc(C(=O)N(C)C)cc2c(=O)cc(N3CCOCC3)oc12` (stereo not shown) [Example 3.33, 8-(1-(3,5-dichlorophenylamino)ethyl)-N,N-dimethyl-2-morpholino-4-oxo-4H-chromene-6-carboxamide] in this work. An IC50 of 4 nM was found for `C#Cc1cc(F)cc(NC(C)c2cc(C(=O)N(C)C)cc3c(=O)cc(N4CCOCC4)oc23)c1` (stereo not shown) [Example 3.34, 8-(1-(3-ethynyl-5-fluorophenylamino)ethyl)-N,N-dimethyl-2-morpholino-4-oxo-4H-chromene-6-carboxamide] in this work. An IC50 of 31 nM was found for `CC(Nc1cc(F)ccc1C#N)c1cc(C(=O)N(C)C)cc2c(=O)cc(N3CCOCC3)oc12` (stereo not shown) [Example 3.35, 8-(1-(2-cyano-5-fluorophenylamino)ethyl)-N,N-dimethyl-2-morpholino-4-oxo-4H-chromene-6-carboxamide] in this work. An IC50 of 24 nM was found for `CC(Nc1cccc(F)c1C#N)c1cc(C(=O)N(C)C)cc2c(=O)cc(N3CCOCC3)oc12` (stereo not shown) [Example 3.36, 8-(1-(2-cyano-3-fluorophenylamino)ethyl)-N,N-dimethyl-2-morpholino-4-oxo-4H-chromene-6-carboxamide] in this work. An IC50 of 12 nM was found for `CC(c1cc(C(=O)N(C)C)cc2c(=O)cc(N3CCOCC3)oc12)N(C)c1cc(F)cc(Cl)c1` (stereo not shown) [Example 3.37, 8-(1-((3-chloro-5-fluorophenyl)(methyl)amino)ethyl)-N,N-dimethyl-2-morpholino-4-oxo-4H-chromene-6-carboxamide] in this work. An IC50 of 17 nM was found for `CC(c1cc(C(=O)N(C)C)cc2c(=O)cc(N3CCOCC3)oc12)N(C)c1cc(F)c(F)c(F)c1` (stereo not shown) [Example 3.38, N,N-dimethyl-8-(1-(methyl(3,4,5-trifluorophenyl)amino)ethyl)-2-morpholino-4-oxo-4H-chromene-6-carboxamide] in this work. An IC50 of 21 nM was found for `CC(c1cc(C(=O)N(C)C)cc2c(=O)cc(N3CCOCC3)oc12)N(C)c1cc(F)cc(F)c1F` (stereo not shown) [Example 3.39, N,N-dimethyl-8-(1-(methyl(2,3,5-trifluorophenyl)amino)ethyl)-2-morpholino-4-oxo-4H-chromene-6-carboxamide] in this work. An IC50 of 43 nM was found for `CC(c1cc(C(=O)N(C)C)cc2c(=O)cc(N3CCOCC3)oc12)N(C)c1ccccc1` (stereo not shown) [Example 3.40, N,N-dimethyl-8-(1-(methyl(phenyl)amino)ethyl)-2-morpholino-4-oxo-4H-chromene-6-carboxamide] in this work. An IC50 of 14 nM was found for `C#Cc1cc(F)cc(N(C)C(C)c2cc(C(=O)N(C)C)cc3c(=O)cc(N4CCOCC4)oc23)c1` (stereo not shown) [Example 3.41, 8-(1-((3-ethynyl-5-fluorophenyl)(methyl)amino)ethyl)-N,N-dimethyl-2-morpholino-4-oxo-4H-chromene-6-carboxamide] in this work. An IC50 of 4 nM was found for `CCN(CC)C(=O)c1cc(C(C)Nc2cc(F)cc(F)c2)c2oc(N3CCOCC3)cc(=O)c2c1` (stereo not shown) [Example 4.01, 8-(1-(3,5-difluorophenylamino)ethyl)-N,N-diethyl-2-morpholino-4-oxo-4H-chromene-6-carboxamide] in this work. An IC50 of 4 nM was found for `CC(Nc1cc(F)cc(F)c1)c1cc(C(=O)N2CCN(C)CC2)cc2c(=O)cc(N3CCOCC3)oc12` (stereo not shown) [Example 4.03, 8-(1-(3,5-difluorophenylamino)ethyl)-6-(4-methylpiperazine-1-carbonyl)-2-morpholino-4H-chromen-4-one] in this work. An IC50 of 4 nM was found for `CC(Nc1cc(F)cc(F)c1)c1cc(C(=O)N2CCNCC2)cc2c(=O)cc(N3CCOCC3)oc12` (stereo not shown) [Example 4.04, 8-(1-(3,5-difluorophenylamino)ethyl)-2-morpholino-6-(piperazine-1-carbonyl)-4H-chromen-4-one] in this work. An IC50 of 8 nM was found for `CC(Nc1cc(F)cc(F)c1)c1cc(C(=O)N2CCSCC2)cc2c(=O)cc(N3CCOCC3)oc12` (stereo not shown) [Example 4.05, 8-(1-(3,5-difluorophenylamino)ethyl)-2-morpholino-6-(thiomorpholine-4-carbonyl)-4H-chromen-4-one] in this work. An IC50 of 4 nM was found for `CC(Nc1cc(F)cc(F)c1)c1cc(C(=O)N2CCCCCC2)cc2c(=O)cc(N3CCOCC3)oc12` (stereo not shown) [Example 4.06, 6-(azepane-1-carbonyl)-8-(1-(3,5-difluorophenylamino)ethyl)-2-morpholino-4H-chromen-4-one] in this work. An IC50 of 4 nM was found for `CC(Nc1cc(F)cc(F)c1)c1cc(C(=O)N(C)CCO)cc2c(=O)cc(N3CCOCC3)oc12` (stereo not shown) [Example 4.07, 8-(1-(3,5-difluorophenylamino)ethyl)-N-(2-hydroxyethyl)-N-methyl-2-morpholino-4-oxo-4H-chromene-6-carboxamide] in this work. An IC50 of 3 nM was found for `CC(Nc1cc(F)cc(F)c1)c1cc(C(=O)N2CCC(O)CC2)cc2c(=O)cc(N3CCOCC3)oc12` (stereo not shown) [Example 4.09, 8-(1-(3,5-difluorophenylamino)ethyl)-6-(4-hydroxypiperidine-1-carbonyl)-2-morpholino-4H-chromen-4-one] in this work.
